Experimental data: patent publication US6716809B1, “Mage-A3 peptides presented by HLA class molecules” (priority 1997, dated 2004)

Legend:
7002 CD4+ clone 2 = experiment: IFN-γ production by CD4+ clone 2 stimulated with peptide- or protein-pulsed EBV-B cells; assay type: cell-based, human; details: for IFN-γ production after stimulation with peptide of clone 2: 1 μg/ml peptide
In short: (§1)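 HLA-DR13 or autologous/allogeneic EBV-B cells pulsed 2 h with MAGE-A3 peptides (varied concentrations, or 1 μg/ml MAGE-A3119-134), or 20 h with 20 μg/ml His-MAGE-A3 protein.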

LB1158 CD4+ clone 22 = experiment: IFN-γ production by CD4+ clone 22 stimulated with peptide- or protein-pulsed EBV-B cells; assay type: cell-based, human; details: for IFN-γ production after stimulation with peptide of clone 22: 1 μg/ml peptide
In short: as §1

[1] = EBV-B cell line 7002, DR13 positive
[2] = EBV-B cell line BM16, DR13 negative
[3] = EBV-B cell line BOB, DR13 negative
[4] = EBV-B cell line BOLETH, DR13 negative
[5] = EBV-B cell line LB1118, DR13 positive
[6] = EBV-B cell line LB1158, DR13 positive
[7] = EBV-B cell line LB1622, DR13 positive
[8] = EBV-B cell line LB1859, DR13 positive
[9] = EBV-B cell line LB1861, DR13 positive
[10] = EBV-B cell line LB1869, DR13 positive
[11] = EBV-B cell line LKT3, DR13 negative
[12] = EBV-B cell line MZ2, DR13 positive
[13] = EBV-B cell line OLGA, DR13 negative
[14] = EBV-B cell line OMW, DR13 positive
[15] = EBV-B cell line RML, DR13 negative
[16] = EBV-B cell line RSH, DR13 negative
[17] = EBV-B cell line TAB089, DR13 negative
[18] = EBV-B cell line TISI, DR13 negative
[19] = EBV-B cell line VAF, DR13 negative
[20] = EBV-B cell line VET, DR13 negative

Molecule: FLLLKYRAREPVTKAE (listed as Homo sapiens) [MAGE-A3119-134]
- IFN-γ production after stimulation with peptide of clone 2 (7002 CD4+ clone 2; [1]): >4000 pg/mL
- IFN-γ production after stimulation with peptide of clone 2 (7002 CD4+ clone 2; [2]): 12 pg/mL
- IFN-γ production after stimulation with peptide of clone 2 (7002 CD4+ clone 2; [3]): 59 pg/mL
- IFN-γ production after stimulation with peptide of clone 2 (7002 CD4+ clone 2; [4]): 0 pg/mL
- IFN-γ production after stimulation with peptide of clone 2 (7002 CD4+ clone 2; [5]): >4000 pg/mL
- IFN-γ production after stimulation with peptide of clone 2 (7002 CD4+ clone 2; [6]): >4000 pg/mL
- IFN-γ production after stimulation with peptide of clone 2 (7002 CD4+ clone 2; [7]): 3993 pg/mL
- IFN-γ production after stimulation with peptide of clone 2 (7002 CD4+ clone 2; [8]): >4000 pg/mL
- IFN-γ production after stimulation with peptide of clone 2 (7002 CD4+ clone 2; [9]): >4000 pg/mL
- IFN-γ production after stimulation with peptide of clone 2 (7002 CD4+ clone 2; [10]): >4000 pg/mL
- IFN-γ production after stimulation with peptide of clone 2 (7002 CD4+ clone 2; [11]): 0 pg/mL
- IFN-γ production after stimulation with peptide of clone 2 (7002 CD4+ clone 2; [12]): >4000 pg/mL
- IFN-γ production after stimulation with peptide of clone 2 (7002 CD4+ clone 2; [13]): 0 pg/mL
- IFN-γ production after stimulation with peptide of clone 2 (7002 CD4+ clone 2; [14]): 3153 pg/mL
- IFN-γ production after stimulation with peptide of clone 2 (7002 CD4+ clone 2; [15]): 0 pg/mL
- IFN-γ production after stimulation with peptide of clone 2 (7002 CD4+ clone 2; [16]): 0 pg/mL
- IFN-γ production after stimulation with peptide of clone 2 (7002 CD4+ clone 2; [17]): 0 pg/mL
- IFN-γ production after stimulation with peptide of clone 2 (7002 CD4+ clone 2; [18]): 4 pg/mL
- IFN-γ production after stimulation with peptide of clone 2 (7002 CD4+ clone 2; [19]): 0 pg/mL
- IFN-γ production after stimulation with peptide of clone 2 (7002 CD4+ clone 2; [20]): 0 pg/mL
- secretion of IFN-γ by clone 2 (7002 CD4+ clone 2; peptide at 10 ng/ml, HLA-DR13 EBV-B cells): stimulated secretion of IFN-γ
- IFN-γ production after stimulation with peptide of clone 22 (LB1158 CD4+ clone 22; [1]): >4000 pg/mL
- IFN-γ production after stimulation with peptide of clone 22 (LB1158 CD4+ clone 22; [2]): 7 pg/mL
- IFN-γ production after stimulation with peptide of clone 22 (LB1158 CD4+ clone 22; [3]): 46 pg/mL
- IFN-γ production after stimulation with peptide of clone 22 (LB1158 CD4+ clone 22; [4]): 6 pg/mL
- IFN-γ production after stimulation with peptide of clone 22 (LB1158 CD4+ clone 22; [5]): 1345 pg/mL
- IFN-γ production after stimulation with peptide of clone 22 (LB1158 CD4+ clone 22; [6]): 3967 pg/mL
- IFN-γ production after stimulation with peptide of clone 22 (LB1158 CD4+ clone 22; [7]): 1250 pg/mL
- IFN-γ production after stimulation with peptide of clone 22 (LB1158 CD4+ clone 22; [8]): >4000 pg/mL
- IFN-γ production after stimulation with peptide of clone 22 (LB1158 CD4+ clone 22; [9]): 3865 pg/mL
- IFN-γ production after stimulation with peptide of clone 22 (LB1158 CD4+ clone 22; [10]): >4000 pg/mL
- IFN-γ production after stimulation with peptide of clone 22 (LB1158 CD4+ clone 22; [11]): 0 pg/mL
- IFN-γ production after stimulation with peptide of clone 22 (LB1158 CD4+ clone 22; [12]): 2030 pg/mL
- IFN-γ production after stimulation with peptide of clone 22 (LB1158 CD4+ clone 22; [13]): 0 pg/mL
- IFN-γ production after stimulation with peptide of clone 22 (LB1158 CD4+ clone 22; [14]): 3651 pg/mL
- IFN-γ production after stimulation with peptide of clone 22 (LB1158 CD4+ clone 22; [15]): 6 pg/mL
- IFN-γ production after stimulation with peptide of clone 22 (LB1158 CD4+ clone 22; [16]): 0 pg/mL
- IFN-γ production after stimulation with peptide of clone 22 (LB1158 CD4+ clone 22; [17]): 0 pg/mL
- IFN-γ production after stimulation with peptide of clone 22 (LB1158 CD4+ clone 22; [18]): 4 pg/mL
- IFN-γ production after stimulation with peptide of clone 22 (LB1158 CD4+ clone 22; [19]): 49 pg/mL
- IFN-γ production after stimulation with peptide of clone 22 (LB1158 CD4+ clone 22; [20]): 56 pg/mL
- stimulation of clone 22 (LB1158 CD4+ clone 22; similar experiments): also stimulated

B1: MAGE-A3: MAGE-A3 protein; recombinant His-MAGE-A3 produced in E. coli, or expressed from MFG MAGE-A3 retrovirus in Example 6 (protein, listed as Homo sapiens)
chain: MPLEQRSQHCKPEEGLEARGEALGLVGAQAPATEEQEAASSSSTLVEVTLGEVPAAESPDPPQSPQGASSLPTTMNYPLWSQSYEDSSNQEEEGPSTFPDLESEFQAALSRKVAELVHFLLLKYRAREPVTKAEMLGSVVGNWQYFFPVIFSKASSSLQLVFGIELMEVDPIGHLYIFATCLGLSYDGLLGDNQIMPKAGLLIIVLAIIAREGDCAPEEKIWEELSVLEVFEGREDSILGDPKKLLTQHFVQENYLEYRQVPGSDPACYEFLWGPRALVETSYVKVLHHMVKISGGPHISYPPLHEWVLREGEE
modifications: His tag
- IFN-γ secretion by clone 2 upon stimulation with protein-loaded autologous EBV-B cells (7002 CD4+ clone 2): secreted IFN-γ
- IFN-γ secretion by clone 22 upon stimulation with protein-loaded autologous EBV-B cells (LB1158 CD4+ clone 22): secreted IFN-γ
